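Briefly, cells in 96-well plates were exposed to five compound concentrations for 48 h, and endpoints were estimated by linear interpolation. GI50 = concentration required for 50% inhibition of growth. TGI is the concentration that stops growth completely.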

A word on the TGI: it is the concentration giving total growth inhibition. Read a low TGI as more potent growth arrest. In general, GI50 refers to the concentration giving 50% growth inhibition.

Test in all cases: DTP human tumour cell line panel, 48 h
The test system of assay [1] is SNB-19 CNS.
In assay [2] the test system is MALME-3M melanoma.
Assay [3] relates to SK-MEL-2 melanoma.
The subject of assay [4] is A498 renal.
Assay [5] deals with EKVX NSCLC.
In assay [6] the test system is HCC-2998 colon.
Assay [7] concerns HCT-15 colon.
Assay [8] concerns UACC-257 melanoma.
In assay [9] the test system is DU-145 prostate.
The subject of assay [10] is MCF7 breast.

Consider `COc1ccc(/C=C/c2nc(=S)[nH][nH]2)cc1`, for which the TGI in assay [1], in assay [2], in [3], in assay [4], in assay [5] and in assay [6] was over 100 µM in each case. For the same compound, the TGI in [7] and in assay [8] was over 100 µM throughout.
As to `NS(=O)(=O)c1ccc(NC(=O)CC(=O)Nc2ccc(S(N)(=O)=O)cc2)cc1`, the TGI in [1], in [2], in [3], in assay [4], in [5] and in [6] was over 100 µM in each case. The TGI in assay [7] and in assay [8] was over 100 µM throughout.
In the case of `Fc1ccc(F)c(C2SCc3nc4ccccc4n32)c1` (centres undefined), the TGI in assay [1], in assay [2], in assay [4], in assay [5], in assay [6] and in assay [7] was over 100 µM each time. Besides, the total growth inhibition concentration (TGI) in assay [8] was over 100 µM.
In the case of `CC(=O)OCC(OC(C)=O)C(OC(C)=O)C(OC(C)=O)C(=O)CNn1c(-c2ccccc2)nc2ccc(Br)cc2c1=O` (centres undefined), the concentration for total growth inhibition (TGI) in assay [1], in assay [2], in assay [3], in assay [4], in [5] and in [7] was over 100 µM each time. The compound also yielded a total growth inhibition concentration (TGI) in assay [8] of over 100 µM.
Take `Cc1c(C2Cc3ccccc3N2C(=O)/C=C\C(=O)O)c2ccccc2n1C` (centres undefined): the TGI in assay [1] was 37.2 µM; in assay [2], over 100 µM; in [3], 32 µM; in [4] it was 66.3 µM; in assay [5] it was 72.9 µM; in [6], 39.5 µM. The results for the TGI in [7] and in assay [8] were over 100 µM and 36.3 µM, respectively.
Turning to `CCc1ccc(/C(C)=N/NC(N)=S)cc1`, the TGI in assay [1], in [2], in [3], in [5] and in assay [6] was over 100 µM in each case.
In the case of `CC(C)=CCC/C(C)=C/CC/C(=C/COP(=O)(OCc1ccc([N+](=O)[O-])o1)N(C)CCCCCl)CC=C(C)C` (centres undefined), the GI50 in [1] was 19.5 µM; in [3], 3.09 µM; in [9] it was 1.94 µM; in assay [5], 3.73 µM; in assay [6], 0.0597 µM; in assay [10] it was 1.88 µM. Besides, the GI50 in assay [7] was 2.65 µM; in assay [8], 6.57 µM. In addition, the TGI in assay [1] came to 41.9 µM; in [3] it was 14.1 µM; in assay [9] it was 18.6 µM; in assay [5] it was 19.8 µM; in assay [6] it was 2.45 µM; in assay [10] it was 5.91 µM. The TGI in [7] was 12.5 µM; in assay [8], 22.5 µM.
Regarding `CCOC(=O)CC1=NC(=Nc2cc(Cl)ccc2Cl)SC1`, the TGI in assay [1], in assay [2], in assay [3], in assay [4], in assay [5] and in [6] was over 100 µM in each case. For the same compound, the TGI in assay [7] and in [8] was over 100 µM throughout.
Turning to `CCc1ccccc1-n1c2nc(=O)n(C)c(=O)c-2nc2ccccc21`, the TGI in assay [1] turned out to be 23.5 µM; in assay [2], 18.2 µM; in assay [3], 39.1 µM; in [4], 32.5 µM; in [5], 24.6 µM; in assay [6], 25.6 µM. Further, the results for the total growth inhibition concentration (TGI) in assay [7] and in assay [8] were 23.4 µM and 18.6 µM, respectively.
`O=C(N=Nc1c(O)[nH]c2c(Cl)cc(Cl)cc12)c1ccncc1`: the TGI in assay [1] is over 100 µM; in [2], 32.7 µM; in assay [3], 40.2 µM; in assay [4] it was over 100 µM; in [5], over 100 µM; in assay [6] it was over 100 µM. For the same compound, the concentration for total growth inhibition (TGI) was over 100 µM in assay [10], over 100 µM in assay [7] and 48.9 µM in [8].
Consider `CN(C)c1nc(N(C)C)n2nc(-c3ccccc3[N+](=O)[O-])nc2n1`, for which the TGI in [1], in [2], in assay [3], in [4], in assay [5] and in assay [6] was over 100 µM throughout. In addition, the TGI in [7] is 31.3 µM; in assay [8] it was over 100 µM.
Regarding `CC1=Nc2c([nH]c(=S)[nH]c2=O)NC(c2ccc(Cl)c(Cl)c2)C1` (centres undefined), the TGI is over 59.8 µM in assay [1]; over 100 µM in assay [2]; over 100 µM in assay [3]; 33.3 µM in assay [4]; over 68.3 µM in [5]; 32 µM in assay [6]. Moreover, the figures for the TGI in assay [7] and in assay [8] were over 60.1 µM and 47 µM, respectively.
As for `COc1ccc(NC(=O)Nc2ccc(Nc3nc(C)cc(Nc4ccc(C)cc4)n3)cc2)cc1`, the GI50 is 1.06 µM in [1]; 1.83 µM in [2]; 1.85 µM in assay [3]; 7.29 µM in assay [4]; 1.16 µM in assay [9]; 2.03 µM in [5]. Also, the GI50 was 1.89 µM in [6], 1.63 µM in [7] and 1.89 µM in [8]. The TGI stood at 3.45 µM in [1]; 3.58 µM in [2]; 3.57 µM in assay [3]; 18.8 µM in assay [4]; 2.59 µM in assay [9]; 4.42 µM in assay [5]. Also, the concentration for total growth inhibition (TGI) came out at 3.59 µM in assay [6], 3.29 µM in assay [7] and 3.69 µM in assay [8].
Turning to `CCOC(=O)C1=C(NC(C)(C)C)OCC1=O`, the TGI in assay [1], in assay [2], in [3], in assay [6], in assay [7] and in assay [8] was over 100 µM each time.

These data come from PubChem BioAssay (NCI).
